The source of these data is US5935966A, “Pyrimidine carboxylates and related compounds and methods for treating inflammatory conditions” (Signal Pharmaceuticals, Inc., priority 1996, dated 1999).

In the first test the test system is delayed-type hypersensitivity response to oxazolone.
Test: not given
As to conditions: Morris et al. 1990; cited from earlier work.
Consider `O=P1(N(CCCl)CCCl)NCCCO1` (stereo not shown) [cyclophosphamide], for which the “activity in delayed-type hypersensitivity (oxazolone) model” value is given as “active”.

Another test has as its system popliteal lymph node (graft vs. host).
Test: not given
As to conditions: Morris et al. 1990; cited from earlier work.
Consider `O=P1(N(CCCl)CCCl)NCCCO1` (stereo not shown) [cyclophosphamide], for which the “activity in popliteal lymph node (graft vs. host) model” value was “active”.

A further test deals with NFκB and AP-1. The test is described as follows: NFκB and AP-1 luciferase reporter assays in stable Jurkat T-cells (PMA/PHA stimulated). As to conditions: Homo sapiens, average of NFκB and AP-1 assays, read-out: ICm (average of the measurements obtained from the NFκB and AP-1 assays). The format is cell-based, human. The source says:
Stable human Jurkat T-cells containing an NFκB binding site (from the MHC promoter) fused to a minimal SV-40 promoter driving luciferase expression were used in this experiment. Cells were split to 3×10^5 cells/mL every 2-3 days (cell concentration should not exceed 1×10^6 cells/mL to keep the cells proliferating in log phase). These cells were counted, resuspended in fresh medium containing 10% Serum-Plus at a density of 1×10^6 cells/mL and plated in 96 well round bottom plates (200 μ.LAMBDA. per well) 18 hours prior to starting the experiment.
Compounds of this invention, dissolved in dimethyl sulfoxide (3.3, 0.33 and 0.03 μg/mL), were then added to the 96 well plates containing the cells and the plates were incubated for 0.5 h at 37° C. Then 50 ng/mL of phorbol 12-myristate-13-acetate (PMA) and 1 μg/mL of phytohemagglutinin (PHA) were added to each well and the cells were incubated for an additional 5 h at 37° C. The plates were centrifuged at 2200 RPM for 3 minutes at room temperature and then the medium was removed. To each well was added 60 μL of cell lysis buffer and the plates were left at room temperature for 0.25 h. Then 40 μL of each cell extract was transferred to a black 96 well plate and 50 μL of luciferase substrate buffer was added. Luminescence was immediately measured using a Packard TopCount.
For AP-1, the assay was run as described above for NFκB except stable Jurkat T-cells were used that contained a collagenase promoter driving luciferase expression. In addition, the concentration of PMA used was 5 ng/mL.
The IC50 values reported in Table 3 are the average of the measurements obtained from the NFκB and AP-1 assays described above.
In general terms: Reporter assays use an easily measured gene product as a stand-in for the process of interest.
Turning to `CCc1nc(N(C)N2C(=O)C=C(C)C2=O)ncc1-c1nc(C)co1` [Example 126, 2-[N-(1'-AMINOCITRACONAMIDO)-N-METHYL]-4-ETHYL-5-[2"-(4"-METHYL)OXAZOLYL]PYRIMIDINE], the IC50 amounted to 1000 nM. Take `CC1=CC(=O)N(N(C)c2ncc(-c3nc(C)co3)c(-c3cccs3)n2)C1=O` [Example 127, 2-[N-(1'-AMINOCITRACONAMIDO)-N-METHYL]-5-[2"-(4"-METHYL)OXAZOLYL]-4-(2'"-THIENYL)PYRIMIDINE]: the IC50 amounted to 750 nM. On to `CCc1nc(N(C)N2C(=O)C=C(C)C2=O)ncc1-c1noc(C)n1` [Example 129, 2-[N-(1'-AMINOCITRACONAMIDO)-N-METHYL]-4-ETHYL-5-[5"-METHYL-1",2",4"-OXADIAZOLYL]PYRIMIDINE], for which the IC50 stood at 1420 nM. With `CC1=CC(=O)N(Nc2nc(-c3cccs3)ncc2-c2cc(C)no2)C1=O` [Example 132, 4-[N-(1'-AMINOCITRACONAMIDO)]-5-(3"-METHYLISOXAZOL-5'-YL)-2-(2'"-THIENYL)PYRIMIDINE], the IC50 came out at 190 nM.

Consider `CC1=CC(=O)N(Nc2nc(-c3cccs3)ncc2-c2nc(C)co2)C1=O` [Example 137, 4-[N-(1'-AMINOCITRACONAMIDO)]-5-(4"-METHYLOXAZOL-2-YL)-2-(2'"-THIENYL)PYRIMIDINE], for which the IC50 was 310 nM. For `CC1=CC(=O)N(Nc2nc(-c3cccs3)ncc2C2=NCCO2)C1=O` [Example 140, 4-[N-(1'-AMINOCIACONAMIDO)]-5-(4",5"-DIHYDRO-2"-OXAZOLYL)-2-(2'"-THIENYL)PYRIMIDINE], the IC50 came to 200 nM. Regarding `CC1=CC(=O)N(Nc2nc(-c3cccs3)ncc2-c2nnc(C)o2)C1=O` [Example 142, 4-[N-(1'-AMINOCITRACONAMIDO)]-5-(5"-METHYL-1",3",4"-OXADIAZOL-2"-YL)-2-(2'"-THIENYL)PYRIMIDINE], the IC50 is 250 nM. With `CC1=CC(=O)N(Nc2nc(-c3cccs3)ncc2C#N)C1=O` [Example 143, 4-[N-(1'-AMINOCITRACONAMIDO)]-5-CYANO-2-(2'-THIENYL)PYRIMIDINE], the IC50 turned out to be 5150 nM.
